In the test the test system is GM01896 cells (MPS II dermal fibroblasts). The test can be described thus: Assay 1: MPS cellular assay, MPS II (heparan sulfate disaccharide biomarkers by LC-MS). It is filed as cell-based, human. The following applies: Assay 1 for MPS II, heparan sulfate disaccharide biomarkers (I2a4, I2a6, I2S0 and/or I2S6), read-out: IC50 Range. Here is the method: Dermal fibroblasts from humans with an MPS disorder and from healthy donors are grown. Cells are expanded and kept in culture for analysis. Human foreskin fibroblasts can be obtained from the American Type Culture Collection (CRL-1634). Human dermal fibroblasts derived from biopsies of individuals are purchased from Coriell Institute: clinically healthy individuals, GM00408, GM00409, GM00200 (clinically unaffected sibling of an individual with metachromatic leukodystrophy), GM05659, GM08398, and GM15871 (clinically unaffected sibling of an individual with unclassified Ehlers-Danlos syndrome); heterozygous MPS I carriers, GM01392, GM01393 and GM0003; homozygous individuals affected with MPS I, GM06214, GM11495, GM00034, GM01391 and GM01256; individuals with MPS II, GM01896, GM03181, GM00615 and GM00298; individuals with MPS IIIA, GM00879, GM00643, GM00934, GM06110 and GM00629; MPS IIIB, GM01426; MPS IIIC, GM05157; MPS IIID, GM05093; and MPS VII, GM00121. All cells are grown in DMEM containing 50 U ml-1 penicillin, […] ml-1 streptomycin, 2 mM glutamine and 10% FBS. Cells are seeded on 15-cm-diameter tissue culture dishes, grown to confluence and maintained in culture for analysis. Sulfamidase activity in cell extracts is measured with 4-methylumbelliferyl-α-D-N-sulfoglucosaminide according the vendors instructions substituting Tris-acetate buffer (pH 6.5; Moscerdam).
Cells are treated with a compound of the invention at a concentration at or below 30 μM for 4 to 21 days. Cell monolayers are washed with phosphate buffered saline and detached by treatment with GIBCO trypsin-EDTA solution (Invitrogen). After centrifugation, the supernatant is removed and the cells are lysed in 0.5 mL of 0.1 N sodium hydroxide. The amount of protein is determined by bicinchoninic acid (BCA assay, Thermo Scientific). GAGs are isolated by anion exchange chromatography and digested with glycosaminoglycan lyases (heparinases I, II, and III, IBEX).
Enzymatically depolymerized GAG preparations are differentially mass labeled by reductive amination with [^12C6]aniline. Briefly, heparan sulfate disaccharides (1-10 pmol) are dried down in a centrifugal evaporator and reacted with [^12C6]aniline or [^13C6]aniline (15 μL, 165 μmol) and 15 μL of 1 M NaCNBH3 (Sigma-Aldrich) freshly prepared in dimethylsulfoxide/acetic acid (7:3, v/v) is added to each sample. Reactions are carried out at 37° C. for 16 h and then dried in a centrifugal evaporator. Unsubstituted amines are reacted with propionic anhydride (Sigma-Aldrich). Dried samples are reconstituted in 20 μL of 50% methanol, and 3 μL of propionic anhydride (Sigma-Aldrich, 23.3 μmol) is added. Reactions are carried out at ˜23° C. for 2 h. Acylated disaccharides are subsequently aniline tagged as described above. Each sample is mixed with commercially available standard unsaturated disaccharides (Seikagaku), standard N-sulfoglucosamine, glucosamine-6-sulfate, N-acetylgalactosamine-4-sulfate and N-acetylgalactosamine-6-sulfate (Sigma-Aldrich), and/or synthesized α-L-idopyranosyluronate-(1,4)-2-N-acetyl-2-deoxy-α/β-D-glucopyranoside (I0S0). All standards are tagged with [^13C6]aniline (Sigma-Aldrich). Samples are then analyzed by LC-MS using an LTQ Orbitrap Discovery electrospray ionization mass spectrometer (Thermo Scientific) equipped with quaternary HPLC pump (Finnigan Surveyor MS pump) and a reverse-phase capillary column as described in J. Biol. Chem. 2008, 283(48), 33674.
MPS II: Assay 1, as described above, was used to determine activity for MPS II using GM01896 cells. […] Extracted ion chromatograms were obtained. Cell viability was monitored using alamar blue or ATP quantification. IC50's were calculated using curve fitting within the ChemInnovation CBIS database system.

SMILES strings stand for the structures. Like-named read-outs stand apart in the source and are kept apart here.

As a reminder, the IC50 is the concentration that inhibits the measured activity by half. Take `Cn1ncc2ccc(-c3cc(Nc4ccc(C#N)cc4)nc(N4CCOCC4)n3)cc21` [4-{[6-(1-methyl(1H-indazol-6-yl))-2-morpholin-4-ylpyrimidin-4-yl]amino}benzenecarbonitrile]: under “Homo sapiens, Fibroblast”, the IC50 fell in the range of 1 to 5 µM.

For `Cc1nc2cc(-c3cc(Nc4ccc(Cl)cc4)nc(N4CCOCC4)n3)ccc2n1C1CCC1` [(4-chlorophenyl)[6-(1-cyclobutyl-2-methylbenzimidazol-5-yl)-2-morpholin-4-ylpyrimidin-4-yl]amine], the IC50 (Homo sapiens, Fibroblast) was in the range of 1 to 5 µM.

Turning to `Cc1nn(CCN2CCCC2)c2cc(-c3cc(Nc4ccc(Cl)cc4)nc(N4CCOCC4)n3)ccc12` [(4-chlorophenyl){6-[3-methyl-1-(2-pyrrolidinylethyl)(1H-indazol-6-yl)]-2-morpholin-4-ylpyrimidin-4-yl}amine], the IC50 (Homo sapiens, Fibroblast) was 1 to 5 µM.

For the compound `Cn1nc(NCCCN2CCCC2)c2ccc(-c3cc(Nc4ccc(Cl)cc4)nc(N4CCOCC4)n3)cc21` [(4-chlorophenyl)(6-{1-methyl-3-[(3-pyrrolidinylpropyl)amino](1H-indazol-6-yl)}-2-morpholin-4-ylpyrimidin-4-yl)amine], where the note is “Homo sapiens, Fibroblast”, the IC50 was 1 to 5 µM.

Regarding `CCNC(=O)c1ccc(Nc2cc(-c3ccc4cnn(C)c4c3)nc(N3CCOCC3)n2)cc1` [N-ethyl(4-{[6-(1-methyl(1H-indazol-6-yl))-2-morpholin-4-ylpyrimidin-4-yl]amino}phenyl)carboxamide], for the setting “Homo sapiens, Fibroblast”, the IC50 lay in the range of 0.5 to 1 µM.

Consider `Cn1ccnc1-c1ccc(Nc2cc(-c3ccc4cnn(C)c4c3)nc(N3CCOCC3)n2)cc1` [[6-(1-methyl(1H-indazol-6-yl))-2-morpholin-4-ylpyrimidin-4-yl][4-(1-methylimidazol-2-yl)phenyl]amine], for which, for the setting “Homo sapiens, Fibroblast”, the IC50 is 0.5 to 1 µM.

Take `Cn1ncc2ccc(-c3cc(Nc4ccc(-c5nnc(C6CC6)[nH]5)cc4)nc(N4CCOCC4)n3)cc21` [[4-(5-cyclopropyl(4H-1,2,4-triazol-3-yl))phenyl][6-(1-methyl(1H-indazol-6-yl))-2-morpholin-4-ylpyrimidin-4-yl]amine]: the IC50 (Homo sapiens, Fibroblast) was less than 0.5 µM.

With `Cn1ncc2ccc(-c3cc(Nc4ccc(-c5ncco5)cc4)nc(N4CCOCC4)n3)cc21` [[6-(1-methyl(1H-indazol-6-yl))-2-morpholin-4-ylpyrimidin-4-yl](4-(1,3-oxazol-2-yl)phenyl)amine], the IC50 (Homo sapiens, Fibroblast) was in the range of 0.5 to 1 µM.

On to `CNC(=O)c1ccc(Nc2cc(-c3ccc4cn[nH]c4c3)nc(N3CCOCC3)n2)cn1` [{5-[(6-(1H-indazol-6-yl)-2-morpholin-4-ylpyrimidin-4-yl)amino](2-pyridyl)}-N-methylcarboxamide], for which the IC50 (Homo sapiens, Fibroblast) lay in the range of 0.5 to 1 µM.

For `Cn1c(CCCN2CCOCC2)nc2ccc(-c3cc(Nc4ccc(Cl)cc4)nc(N4CCOCC4)n3)cc21` [(4-chlorophenyl){6-[1-methyl-2-(3-morpholin-4-ylpropyl)benzimidazol-6-yl]-2-morpholin-4-ylpyrimidin-4-yl}amine], the IC50 (Homo sapiens, Fibroblast) fell in the range of 1 to 5 µM.

With `COC(=O)c1ccc(Nc2cc(-c3ccc4cnn(CCCN5CCOCC5)c4c3)nc(N3CCOCC3)n2)cc1` [methyl 4-({2-morpholin-4-yl-6-[1-(3-morpholin-4-ylpropyl)(1H-indazol-6-yl)]pyrimidin-4-yl}amino)benzoate], the half-maximal inhibitory concentration (IC50) (Homo sapiens, Fibroblast) lay in the range of 0.5 to 1 µM.

For the compound `Cc1nn(C)c2cc(-c3cc(Nc4ccc(-c5ncco5)cc4)nc(N4CCOCC4)n3)ccc12` [[6-(1,3-dimethyl(1H-indazol-6-yl))-2-morpholin-4-ylpyrimidin-4-yl](4-(1,3-oxazol-2-yl)phenyl)amine], the IC50 (Homo sapiens, Fibroblast) lay within 0.5 to 1 µM.

Turning to `CNC(=O)c1ccc(Nc2cc(-c3ccc4cnn(CCN5CCOCC5)c4c3)nc(N3CCOCC3)n2)cc1` [N-methyl[4-({2-morpholin-4-yl-6-[1-(2-morpholin-4-ylethyl)(1H-indazol-6-yl)]pyrimidin-4-yl}amino)phenyl]carboxamide], where the note is “Homo sapiens, Fibroblast”, the IC50 lay within 0.5 to 1 µM.

For the compound `Cn1ncc2ccc(-c3cc(Nc4ccc5cn[nH]c5c4)nc(N4CCOCC4)n3)cc21` [1H-indazol-6-yl[6-(1-methyl(1H-indazol-6-yl))-2-morpholin-4-ylpyrimidin-4-yl]amine], the IC50 (Homo sapiens, Fibroblast) fell in the range of 1 to 5 µM.

On to `Cn1nc(CCN2CCNCC2)c2ccc(-c3cc(Nc4ccc(Cl)cc4)nc(N4CCOCC4)n3)cc21` [(4-chlorophenyl){6-[1-methyl-3-(2-piperazinylethyl)(1H-indazol-6-yl)]-2-morpholin-4-ylpyrimidin-4-yl}amine], for which, for the setting “Homo sapiens, Fibroblast”, the IC50 was 1 to 5 µM.

With `CN(C)CCn1cnc2ccc(-c3cc(Nc4ccc(Cl)cc4)nc(N4CCOCC4)n3)cc21` [[2-(6-{6-[(4-chlorophenyl)amino]-2-morpholin-4-ylpyrimidin-4-yl}benzimidazolyl)ethyl]dimethylamine], the IC50 lay in the range of 0.5 to 1 µM.

In the case of `Cc1ccc(Nc2cc(-c3ccc4c(cnn4C)c3)nc(N3CCOCC3)n2)cc1` [[6-(1-methyl(1H-indazol-5-yl))-2-morpholin-4-ylpyrimidin-4-yl](4-methylphenyl)amine], under “Homo sapiens, Fibroblast”, the IC50 is 1 to 5 µM.

Take `CCn1ccc2ccc(Nc3cc(-c4ccc5c(C)nn(C)c5c4)nc(N4CCOCC4)n3)cc21` [[6-(1,3-dimethyl(1H-indazol-6-yl))-2-morpholin-4-ylpyrimidin-4-yl](1-ethylindol-6-yl)amine]: the IC50 (Homo sapiens, Fibroblast) fell in the range of 1 to 5 µM.

With `COCCNc1nc2ccc(-c3cc(Nc4ccc(Cl)cc4)nc(N4CCOCC4)n3)cc2n1C` [(4-chlorophenyl)(6-{2-[(2-methoxyethyl)amino]-1-methylbenzimidazol-6-yl}-2-morpholin-4-ylpyrimidin-4-yl)amine], the IC50 (Homo sapiens, Fibroblast) lay in the range of 0.5 to 1 µM.

Consider `Clc1ccc(Nc2cc(-c3ccc4c(c3)ncn4C3CC3)nc(N3CCOCC3)n2)cc1` [(4-chlorophenyl)[6-(1-cyclopropylbenzimidazol-5-yl)-2-morpholin-4-ylpyrimidin-4-yl]amine], for which the IC50 (Homo sapiens, Fibroblast) was 1 to 5 µM.

`Cc1nc2ccc(-c3cc(Nc4ccc(Cl)cc4)nc(N4CCOCC4)n3)cc2n1C1CCC1` [(4-chlorophenyl)[6-(1-cyclobutyl-2-methylbenzimidazol-6-yl)-2-morpholin-4-ylpyrimidin-4-yl]amine]: the IC50 (Homo sapiens, Fibroblast) fell in the range of 1 to 5 µM.

`Cn1nc(CCN2CCOCC2)c2ccc(-c3cc(Nc4ccc(-c5cocn5)cc4)nc(N4CCOCC4)n3)cc21` [{6-[1-methyl-3-(2-morpholin-4-ylethyl)(1H-indazol-6-yl)]-2-morpholin-4-ylpyrimidin-4-yl}(4-(1,3-oxazol-4-yl)phenyl)amine]: the IC50 (Homo sapiens, Fibroblast) is less than 0.5 µM.

Turning to `Cn1ccc2ccc(Nc3cc(-c4ccc5c(CCCN6C(=O)c7ccccc7C6=O)nn(C)c5c4)nc(N4CCOCC4)n3)cc21` [2-[3-(1-methyl-6-{6-[(1-methylindol-6-yl)amino]-2-morpholin-4-ylpyrimidin-4-yl}-1H-indazol-3-yl)propyl]benzo[c]azoline-1,3-dione], the IC50 (Homo sapiens, Fibroblast) is less than 0.5 µM.

As to `Cn1ccc2ccc(Nc3cc(-c4ccc5c(CCN6C(=O)c7ccccc7C6=O)nn(C)c5c4)nc(N4CCOCC4)n3)cc21` [2-[2-(1-methyl-6-{6-[(1-methylindol-6-yl)amino]-2-morpholin-4-ylpyrimidin-4-yl}-1H-indazol-3-yl)ethyl]benzo[c]azoline-1,3-dione], the IC50 (Homo sapiens, Fibroblast) is 0.5 to 1 µM.

Turning to `Cc1nn(C)c2cc(-c3cc(Nc4ccc5cc[nH]c5c4)nc(N4CCOCC4)n3)ccc12` [[6-(1,3-dimethyl(1H-indazol-6-yl))-2-morpholin-4-ylpyrimidin-4-yl]indol-6-ylamine], where the note is “Homo sapiens, Fibroblast”, the IC50 lay in the range of 0.5 to 1 µM.

Turning to `CCc1nn(C)c2cc(-c3cc(Nc4ccc(Cl)cc4)nc(N4CCOCC4)n3)cnc12` [(4-chlorophenyl)[6-(3-ethyl-1-methylpyrazolo[4,5-b]pyridin-6-yl)-2-morpholin-4-ylpyrimidin-4-yl]amine], under “Homo sapiens, Fibroblast”, the IC50 is 1 to 5 µM.

The values are drawn from US20190151312A1, “HEPARAN SULFATE BIOSYNTHESIS INHIBITORS FOR THE TREATMENT OF DISEASES” (BioMarin Pharmaceutical Inc., priority 2014, published 2019).
